Assay results taken from patent publication US8389739B1, “Modulators of retinoid-related orphan receptor gamma” (Orphagen Pharmaceuticals, priority 2006, dated 2013).
Entries after “also recorded” stand apart in the source; their conditions may differ. Like-named read-outs stand apart in the source and are kept apart here.

What was measured:
[1] = target: T1, human RORγ (Homo sapiens, UniProt P51449); assay: Transcriptional assay of human RORγ (Gal4-hRORγ); format: cell-based; settings: Table 4B
T1 construct: expressed in transfected cells; host or cells: CHO cells, transient transfection
T1 sequence (P51449 253-518): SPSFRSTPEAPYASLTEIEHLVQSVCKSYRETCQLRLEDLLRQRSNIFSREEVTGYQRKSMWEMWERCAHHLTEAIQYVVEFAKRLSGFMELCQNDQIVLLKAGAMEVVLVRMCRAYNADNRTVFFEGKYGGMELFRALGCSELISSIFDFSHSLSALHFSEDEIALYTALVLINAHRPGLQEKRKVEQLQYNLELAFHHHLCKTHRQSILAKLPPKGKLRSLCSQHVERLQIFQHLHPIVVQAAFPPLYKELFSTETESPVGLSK
Protocol: The complete Gal4-hRORγ nucleotide sequence is shown below:
A firefly luciferase reporter gene for Gal4 DBD hybrid receptors, such as Gal4-RORγ, contains five copies of the Gal4 17-mer response element in its promoter and the coding sequence for firefly luciferase (pG5-luc, Promega). CHO (Chinese Hamster Ovary) cells were cultured in Ham's F12 medium supplemented with 10% fetal calf serum (Gemini Biologicals), 10 μg/ml penicillin and streptomycin, and were maintained in a humidified 37° C. incubator (Thermo Electron, Steri-Cycle) with 5% CO2. 24 hours before transfection, cells were plated in T175 flasks (5×10^6 cells/flask) or T75 flasks (1.7×10^6 cells/flask). Transient transfection of CHO cells was performed using TransIT-CHO reagents (Minis, Madison, Wis.) with a mixing ratio of 2:6:1 between plasmid DNA (in μg), TransIT-CHO (in μl) and CHO-mojo (in μl).
Plates are maintained at 37° C. in a humidified atmosphere with 7% CO2 overnight. Four (4) hours after cell seeding, compounds dissolved in DMSO at 10 mM were added to cells at final concentrations of 20 micromolar (μM) to 20 nanomolar (nM) in 0.2% DMSO in triplicate plates. Approximately 40 hours later, cytotoxicity in the assay well was characterized by addition of the dye resazurin (O'Brien, Wilson et al. 2000) to a final concentration of 3 μM. […] Percent viability was determined as 2 hour fluorescence, minus background at t=0 hours, normalized to DMSO controls. For detection of luciferase activity, media was removed from plates after the measurement of resazurin conversion, and SteadyLite luciferase reagent (Perkin-Elmer) was added (30 μl/well). Luminescence is detected with a Victor 2-V plate reader (Perkin-Elmer) and normalized to luciferase activity of DMSO control wells alone.

[2] = tested on: IL-22 release in lymph node cultures; assay: Lymph node cell cultures from MOG-immunized C57BL/6 mice, IL-22 ELISA; format: cell-based
Protocol: FIGS. 15A-B. IL-22 release in lymph node cultures is regulated by RORγ ligands. Lymph node cells from MOG-immunized C57BL/6 mice were cultured for 3 days with 30 μg/ml MOG, […] IL-23 (FIG. 15A) and 3 μM compounds (FIG. 15B). Culture media were analyzed by IL-22 ELISA.
ELISA kits for mouse IL-17 and human IL-17 were from eBioscience (San Diego, Calif.). ELISA assays were performed following the manufacturer's protocol. Certain samples were diluted 20-fold to avoid maximization of enzymatic signals. For mouse IL-22 ELISA, antibodies and standards were from Antigenix America (Huntington Station, N.Y.) and accessory components were from eBioscience. The IL-22 assay protocol was similar to that of the IL-17 assays.
The proinflammatory cytokine IL-22 is also expressed in Th-17 cells. […] In addition, IL-22 seems to have 30-50 fold higher levels than IL-17. […] This is illustrated in FIG. 15.

[3] = tested on: human IL-17 release from PBMCs; assay: Human IL-17 release from Con A stimulated PBMCs (ELISA); format: cell-based; settings: 1 μg/ml Con A, 3 days; for reversal of antagonist effect on IL-17 release by agonist: 3 μM each; for Con A stimulated IL-17 release into culture medium: 3 μM
From the text: We also investigated whether human IL-17 is subject to regulation by RORγ ligands.

[4] = tested on: TH-17 cell differentiation from naïve CD4+ T cells; assay: Differentiation of naïve CD4+ T cells, intracellular IL-17/IFN-γ staining by FACS (TH-17 protocol, TGFβ + IL-6); format: cell-based, mouse; settings: for Cell Frequency (%) Th-17 Differentiation IFN-γ^+ / Cell Frequency (%) Th-17 Differentiation IL-17^+: Table 11, 3 μM; for Cell Frequency (%) Th-17 Differentiation IFN-γ^+: DMSO vehicle 1.03%; for Cell Frequency (%) Th-17 Differentiation IL-17^+: DMSO vehicle 3.81%
[5] = Table 9, 3 μM (combination 3 μM each), 4 ng/ml TGFβ and 20 ng/ml IL-6, DMSO 2.32%
[6] = Table 9, 3 μM (combination 3 μM each), DMSO 1.60%

Compound	EC50 [1] [µM]	IL-22 production in LN cultures ([2]; 3 μM each (FIG. 15))	reversal of antagonist effect on IL-17 release by agonist [3]	Con A stimulated IL-17 release into culture medium [3]	effect on TH-17 cell differentiation [4]	Cell Frequency (%) TH-17 Protocol IL-17^+ [4, 5] [%]	Cell Frequency (%) TH-17 Protocol IFN-γ^+ [4, 6] [%]	Cell Frequency (%) Th-17 Differentiation IFN-γ^+ [4] [%]	Cell Frequency (%) Th-17 Differentiation IL-17^+ [4] [%]	other results
COc1c(C=NNc2nc(N3CCCCC3)nc(N3CCCCC3)n2)cccc1[N+](=O)[O-] [OR-2161, N-(4,6-Di-piperidin-1-yl-[1,3,5]triazin-2-yl)-N′-(2-methoxy-3-nitro-benzylidene)-hydrazine]	1	–	–	–	–	–	–	–	–	–
COC(C)CCC(C)C1CCC2C3CC(O)C4CC(O)CCC4(C)C3CCC12C (centres unmarked) [OR-12872, 17-(4-Methoxy-1-methyl-pentyl)-10,13-dimethyl-hexadecahydro-cyclopenta[a]phenanthrene-3,6-diol]	–	enhanced	partly reverse the effects of OR-1050 and OR-13571	does not significantly alter IL-17 release	stimulatory; also recorded: able to reverse the effect of OR-1050; also recorded: increases the fraction of IL-17^+ cells	3.91	1.37	–	–	elevation of TH-17 frequency by agonist alone ([4]; 3 μM (FIG. 8)): 60%; increase of TH-17 frequency from the lower baseline produced by OR-1050 ([4]; 3 μM agonist in the presence of 3 μM OR-1050 (FIG. 8)): 400%; Cell Frequency (%) TH-17 Protocol IFN-γ^+ ([4]; Table 10, 1 μM, DMSO vehicle 0.71%): 0.65%; Cell Frequency (%) TH-17 Protocol IL-17^+ ([4]; Table 10, 1 μM, DMSO vehicle 2.46%): 3.96%
C[C@@H]1CC[C@@]2(OC1)O[C@H]1C[C@H]3[C@@H]4CC[C@H]5C[C@@H](O)CC[C@]5(C)[C@H]4C[C@@H](O)[C@]3(C)[C@H]1[C@@H]2C [OR-885, 5α,20α, 22α, 25D-SPIROSTAN-3β, 12β-DIOL]	5.1	–	partially reversible by OR-12872	–	blocks the differentiation of TH-17 cells	–	–	–	–	IL-22 production in LN cultures [2]: inhibited; EC50 (μM), transcriptional assay of human RORγ [1]: significantly less potent at hRORγ; Cell Frequency (%) TH-17 Protocol IFN-γ^+ [4]: 1.45%; Cell Frequency (%) TH-17 Protocol IL-17^+ [4]: 0.52%
CC(=O)O[C@H]1CC[C@@]2(C)C(CC[C@]3(C)C2C(=O)C=C2C4[C@@H](C)[C@H](C)CC[C@]4(C(=O)O)CC[C@]23C)C1(C)C (stereo in doubt) [OR-13571, 10-Acetoxy-1,2,6a,6b,9,9,12a-heptamethyl-13-oxo-1,3,4,5,6,6a,6b,7,8,8a,9,10,11,12,12a,12b,13,14b-octadecahydro-2H-picene-4a-carboxylic acid]	0.2	–	–	inhibited	exerted a similar effect on TH-17 differentiation as OR-885 and OR-1050; also recorded: inhibits TH-17 differentiation	–	–	0.93	1.42	–

Further lines, with some results ahead:

EC50 [1] [µM]	Compound	IL-22 production in LN cultures ([2]; 3 μM each (FIG. 15))	reversal of antagonist effect on IL-17 release by agonist [3]	Con A stimulated IL-17 release into culture medium [3]	effect on TH-17 cell differentiation [4]	Cell Frequency (%) TH-17 Protocol IL-17^+ [4, 5] [%]	Cell Frequency (%) TH-17 Protocol IFN-γ^+ [4, 6] [%]	Cell Frequency (%) Th-17 Differentiation IFN-γ^+ [4] [%]	Cell Frequency (%) Th-17 Differentiation IL-17^+ [4] [%]	other results
0.4	CCN(c1ccc(C(O)(C(F)(F)F)C(F)(F)F)cc1)S(=O)(=O)c1ccc([N+](=O)[O-])cc1 [OR-1050, N-Ethyl-4-nitro-N-[4-(2,2,2-trifluoro-1-hydroxy-1-trifluoromethyl-ethyl)-phenyl]-benzenesulfonamide]	inhibited	–	inhibited	significantly inhibited TH-17 cell differentiation in a dose-dependent manner; also recorded: decreases the proportion of IL-17^+ cells	0.44	1.42	1.09	1.47	–
6.8	CCn1c(CNc2ccc(Cl)cc2)nnc1SCC(=O)Nc1cccc2ccccc12 [OR-133008, 2-{5-[(4-Chloro-phenylamino)-methyl]-4-ethyl-4H-[1,2,4]triazol-3-ylsulfanyl}-N-naphthalen-1-yl-acetamide]	–	–	–	–	–	–	–	–	–
